From US11505529B2, “8-phenyl-isoquinolines and pharmaceutical composition thereof used in the treatment of irritable bowel syndrome” (NATIONAL TAIWAN UNIVERSITY, priority 2017, dated 2022)
Where a name gives a salt, the structure may show the parent alone.

How the values were obtained:
[1] = tested on: GW mice; assay: Intestinal pain (visceromotor response to colorectal distension) in mice with Giardia postinfection plus water avoidance stress (GW); type: in vivo, C57BL/6 mice; details: for intestinal pain (VMR): p.o. single dose 5 mg/Kg, 90 minutes before analysis
Excerpt: Two animal models of IBS that had shown visceral hypersensitivity were used in the study, including dual challenge of postinfection combined with psychological stress, and post-inflammation. In the first model, mice were divided into two groups, including one group subjected to dual triggers of Giardia postinfection and water avoidance stress (GW) and the one group pair-fed with saline and non-handled (PN) as uninfected unstressed normal controls. Axenic Giardia lamblia trophozoites (strain GS/M, ATCC 50581) were cultured in vitro and harvested at log-phase as described in Singer et al., (T-cell-dependent control of acute Giardia lamblia infections in mice. Infect. Immun. 2000; 68:170-175) and Davids et al. (Polymeric immunoglobulin receptor in intestinal immune defense against the lumen-dwelling protozoan parasite Giardia. J Immunol 2006; 177:6281-6290). Mice were orally gavaged with 10^7 Giardia trophozoites suspended in 0.2 ml of sterile phosphate-buffered saline (PBS) or pair-fed with the same volume of PBS. The status of Giardia infection was verified after 4-7 days by enumeration of motile trophozoites in the small intestine following a cold-shock protocol (disclosed in Scott K G, Yu L C H, Buret A G. Role of CD8+ and CD4+ T lymphocytes in jejunal mucosal injury during murine giardiasis. Infect. Immun. 2004; 72:3536-3542 and Scott K G, Meddings J B, Kirk D R, et al. Intestinal infection with Giardia spp. reduces epithelial barrier function in a myosin light chain kinase-dependent fashion. Gastroenterology 2002; 123:1179-1190). On the sixth week postinfection in which the trophozoites could not be detected in the small intestine (post-clearance phase), mice were subjected to chronic psychological stress. The procedure of WAS involved placing the mouse on a platform (3×6 cm) in the center of a container (56×50 cm) with 3 cm (vertical height) of room temperature water. Mice remained on the platform for 1 hr to avoid water immersion as a psychological stress without physical harm. The 1-hr stress sessions were carried out for 10 consecutive days to mimic chronic repeated stress, and were performed between 9:00 and 12:00 to minimize the effect of the circadian rhythm. Uninfected and unstressed non-handled animals were kept in their cages as normal controls. On the last day of the stress session, intestinal pain was measured in mice.
For testing of anti-nociceptive effects in the GW model, mice were administered novel 5-HT7R ligands by a single dose 90 or 240 minutes prior to intestinal pain measurement. In additional settings, the novel ligands were repeatedly administered for 10 consecutive days 30 minutes before the start of each stress session and intestinal pain was measured immediately after the last stress session.
Abdominal pain was measured by visceromoter response (VMR) to colorectal distension (CRD) in mice following previously described methods with slight modification (Lu C L, Hsieh J C, Dun N J, et al. Estrogen rapidly modulates 5-hydroxytrytophan-induced visceral hypersensitivity via GPR30 in rats. Gastroenterology 2009; 137:1040-1050; Hong S, Zheng G, Wu X, et al. Corticosterone mediates reciprocal changes in CB 1 and TRPV1 receptors in primary sensory neurons in the chronically stressed rat. Gastroenterology 2011; 140:627-637 e4). Briefly, electrodes made from Teflon-coated stainless steel wire (A-M systems, Carlsborg, Wash.) were implanted in the abdominal external oblique muscles of mice at least 15 days prior to VMR experiments. The electrodes were exteriorized onto the back of the neck. Mice were habituated in the plexiglass cylinder for 30 minutes per day for 3 consecutive days before VMR experiments. The cylinder was used for partial restraint of conscious mice during the CRD experiments. For recording, electrodes were connected to an electromyogram acquisition system (AD instruments, New south wales, Australia). […]

[2] = tested on: TNBS mice; assay: Intestinal pain (visceromotor response to colorectal distension) in post-TNBS colitis mice; type: in vivo, C57BL/6 mice; details: for intestinal pain (VMR): p.o. single dose 5 mg/kg, 90 minutes before analysis
Description: In the second model, intestinal inflammation was induced by intracolonic administration of 10% 2,4,6-trinotrobenzene sulfonic acid (TNBS) in 0.2 ml of 50% ethanol (Sigma-Aldrich, St. Louis, Mo., USA) via a 22-gauge feeding needle. Sham controls were given PBS in the same volume. Intestinal inflammatory parameters and pain levels were measured on various time points after TNBS administration.
For testing of anti-nociceptive effects in the post-TNBS model, mice were administered with novel 5-HT7R ligands by a single dose at 90 or 240 minutes before or by repeated administration of multiple doses for 10 consecutive days prior to intestinal pain measurement.
Abdominal pain was measured by visceromoter response (VMR) to colorectal distension (CRD) in mice following previously described methods with slight modification (Lu C L, Hsieh J C, Dun N J, et al. Estrogen rapidly modulates 5-hydroxytrytophan-induced visceral hypersensitivity via GPR30 in rats. Gastroenterology 2009; 137:1040-1050; Hong S, Zheng G, Wu X, et al. Corticosterone mediates reciprocal changes in CB 1 and TRPV1 receptors in primary sensory neurons in the chronically stressed rat. Gastroenterology 2011; 140:627-637 e4). Briefly, electrodes made from Teflon-coated stainless steel wire (A-M systems, Carlsborg, Wash.) were implanted in the abdominal external oblique muscles of mice at least 15 days prior to VMR experiments. The electrodes were exteriorized onto the back of the neck. Mice were habituated in the plexiglass cylinder for 30 minutes per day for 3 consecutive days before VMR experiments. The cylinder was used for partial restraint of conscious mice during the CRD experiments. For recording, electrodes were connected to an electromyogram acquisition system (AD instruments, New south wales, Australia). The colon was distended by inflating a balloon catheter inserted intra-anally such that it ended 1.5 cm proximal to the anus. Mice were subjected to […] 10-second distensions (15, 40, and 65 mmHg) with 3-min rest intervals. The electromyographic (EMG) activity was amplified and digitized using a transducer (AD instruments) connected to a P511 AC amplifier (Grass instruments, Calif., USA) and Powerlab device with Chart 5 software (AD instruments). The EMG activity was rectified, and the response was recorded as the increase in the area under the curve (AUC) of the EMG amplitude during CRD versus the baseline period.

[3] = target: 5-HT7R (Homo sapiens, UniProt P34969); assay: 5-HT7 receptor binding affinity
Chain of 5-HT7R (P34969 whole entry): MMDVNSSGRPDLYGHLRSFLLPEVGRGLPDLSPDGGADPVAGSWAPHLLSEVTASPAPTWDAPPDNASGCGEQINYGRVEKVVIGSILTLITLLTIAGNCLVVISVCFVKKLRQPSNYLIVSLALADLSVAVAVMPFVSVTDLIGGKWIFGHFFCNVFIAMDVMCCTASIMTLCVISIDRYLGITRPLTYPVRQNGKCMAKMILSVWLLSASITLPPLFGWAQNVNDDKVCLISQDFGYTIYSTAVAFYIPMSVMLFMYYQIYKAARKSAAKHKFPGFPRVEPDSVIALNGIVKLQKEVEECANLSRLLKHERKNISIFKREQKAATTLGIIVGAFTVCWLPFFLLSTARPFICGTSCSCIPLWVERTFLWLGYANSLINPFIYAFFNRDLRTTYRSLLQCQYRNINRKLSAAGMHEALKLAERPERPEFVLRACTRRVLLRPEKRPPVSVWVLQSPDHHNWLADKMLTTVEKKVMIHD

[4] = log D; type: physicochemical
[5] = target: 5-HT2AR (Homo sapiens, UniProt P28223); assay: 5-HT2A receptor binding affinity
Chain of 5-HT2AR (P28223 whole entry): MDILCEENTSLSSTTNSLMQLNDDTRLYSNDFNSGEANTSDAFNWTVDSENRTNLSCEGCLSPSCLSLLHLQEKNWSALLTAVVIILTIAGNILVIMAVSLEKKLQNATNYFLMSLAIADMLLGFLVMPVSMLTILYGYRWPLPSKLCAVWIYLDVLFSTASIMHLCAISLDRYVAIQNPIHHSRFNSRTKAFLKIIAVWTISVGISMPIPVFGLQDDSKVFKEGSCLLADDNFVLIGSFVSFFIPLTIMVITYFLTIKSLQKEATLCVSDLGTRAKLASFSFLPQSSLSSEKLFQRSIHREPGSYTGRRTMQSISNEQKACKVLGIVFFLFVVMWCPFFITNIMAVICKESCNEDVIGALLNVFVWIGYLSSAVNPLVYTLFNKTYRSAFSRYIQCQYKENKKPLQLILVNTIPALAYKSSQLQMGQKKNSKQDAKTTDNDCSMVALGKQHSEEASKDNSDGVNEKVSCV

[6] = tested on: colonic tissues; assay: Colonic histology (adverse response) after treatment in GW and TNBS mice
Excerpt: Intestinal tissues were fixed in 4% paraformaldehyde (PFA) and embedded in paraffin wax with proper orientation of the crypt to villus axis before sectioning. Sections of 5-μm thickness were deparaffinized with xylene and graded ethanol, stained with hematoxylin and eosin (H&E), and observed under a light microscope.

| Structure (SMILES) | intestinal pain (VMR) ([1]; GW mice) | intestinal pain (VMR) [2] | Ki [3] [nM] | logD [4] | Ki [5] [nM] | other results |
| --- | --- | --- | --- | --- | --- | --- |
| CC1CCN(CC[C@H]2CCCN2S(=O)(=O)c2cccc(O)c2)CC1.Cl [SB7, SB-269970 hydrochloride, reference compound] | had no effect on intestinal nociception | had no effect on intestinal pain | – | – | – | intestinal pain measured by VMR ([1]; i.p., 0.5 mg/Kg, IBS-like mouse model (FIG. 7)): significantly inhibited intestinal pain levels |
| COc1ccccc1-c1c(O)c(OC)cc2c1CN(CCCc1ccncc1)CC2 [Compound 8, 6-methoxy-8-(2-methoxyphenyl)-2-(3-(pyridin-4-yl)propyl)-1,2,3,4-tetrahydroisoquinolin-7-ol] | strongest inhibition of intestinal pain to baseline levels | – | 5.8 | 1.68 | > 1000 | intestinal pain, time response ([1]; GW mice, 5 mg/kg p.o. at 1.5, 4 or 12 hours prior to pain measurement): Reduction of pain levels was seen at three time points; intestinal pain, dose response ([1]; GW mice, i.p. at 0.05 and 0.5 mg/kg, 90 minutes before analysis (FIG. 9A)): Dose-dependent analgesic effects; intestinal pain, dose response ([1]; GW mice, p.o. at 1.5 and 5 mg/kg, 90 minutes before analysis (FIG. 9B)): Dose-dependent analgesic effects; intestinal pain after repeated administration ([1]; GW mice, p.o. multiple doses over 10 days): decreased intestinal pain in GW mice in a dose-dependent manner; intestinal pain after repeated administration ([2]; multiple doses): reduced intestinal pain |
| COc1ccccc1-c1c2c(cc(OC)c1OC)CCN(CCCc1ccncc1)C2 [Compound 10, 6,7-dimethoxy-8-(2-methoxyphenyl)-2-(3-(pyridin-4-yl)propyl)-1,2,3,4-tetrahydroisoquinoline] | – | – | 7.1 | 2.93 | > 1000 | – |
| COc1ccc(-c2c(O)c(OC)cc3c2CN(CCc2ccccc2F)CC3)c(OC)c1 [Compound 6] | – | – | 3.5 | 3.98 | 2.2 | – |
| COc1ccccc1-c1c(O)c(OC)cc2c1CN(CCCc1cccnc1)CC2 [Compound 9, 6-methoxy-8-(2-methoxyphenyl)-2-(3-(pyridin-3-yl)propyl)-1,2,3,4-tetrahydroisoquinolin-7-ol] | – | – | 4.9 | 1.7 | > 1000 | – |
| Cc1[nH]cnc1CN1CCc2c(c3ccccc3n2C)C1=O [ALN, alosetron hydrochloride] | reduced intestinal pain but was less efficient compared to compound 8 | had no effect on intestinal pain | – | – | – | mice with hyperemia and granulocyte infiltration in the colonic tissues ([6]; C57BL/6, mouse, in vivo): 14%; colonic histology ([6]; p.o. 5 mg/Kg, GW and TNBS mice, hydrochloride, 5 mg/kg): Hyperemia (*) and granulocyte infiltration (arrowheads) were observed |
| COc1ccccc1-c1c(O)c(OC)cc2c1CN(CCCc1ccc([N+](=O)[O-])cc1)CC2 [Compound 7, 6-methoxy-8-(2-methoxyphenyl)-2-(3-(4-nitrophenyl)propyl)-1,2,3,4-tetrahydroisoquinolin-7-ol] | – | – | 1.4 | 3.66 | 70 | – |
| CN(C)C(=O)C(CCN1CCC(O)(c2ccc(Cl)cc2)CC1)(c1ccccc1)c1ccccc1 [LPM, loperamide hydrochloride, reference compound] | had no effect on intestinal nociception | had no effect on intestinal pain | – | – | – | – |
